In patent US11512075B2 (priority 2017, dated 2022):
“Also recorded” adds a separate entry of the source.

Columns and labels:
human KOR [1] = target: T1, human KOR (Homo sapiens, UniProt P41145); type: cell-based
[2] = system: chloroquine phosphate-induced pruritus in mice; parameters: species or system C57BL/6J mice; details: mouse, in vivo
human KOR [3] = target: T1, human KOR; type: binding

## COC(=O)[C@@H]1C[C@H](OC(C)=O)C(=O)[C@H]2[C@@]1(C)CC[C@H]1C(=O)O[C@H](c3ccoc3)C[C@]21C [SalA, salvinorin A, reference compound]
Human KOR [1]
  efficacy in G protein signaling (inhibition of cAMP accumulation): slightly higher affinity and efficacy
[2]
  suppression of itch (scratching) response: suppressed the itch response

## COC(=O)[C@@H]1C[C@H](OC(C)=O)C(=O)[C@@H]2[C@H]3C[C@@H](c4ccoc4)OC(=O)[C@@H]3CC[C@]21C [20-nor-SalA, 20-nor-salvinorin A]
Human KOR [3]
  affinity for the κ-OR (radioligand competition binding, Ki): high affinity
Human KOR [1]
  KOR agonist potency: high potency
  efficacy in G protein signaling (inhibition of cAMP accumulation): full agonist
[2]
  suppression of itch (scratching) response: suppressed the itch response; also recorded: similarly effective to SalA and another conventional agonist (U50,488H)
